Reference: ChEMBL document CHEMBL4265998, “NLRP3 Modulators for the Treatment of Autoinflammatory Disorders” (ACS Med Chem Lett, 2018)

Legend:
Toll-like receptor 7 = biological target: T1, Toll-like receptor 7 (Homo sapiens, UniProt Q9NYK1); assay: Agonist activity at TLR7 (unknown origin) expressed in HEK-Blue cells; assay type: cell-based
T1 sequence (Q9NYK1 whole entry): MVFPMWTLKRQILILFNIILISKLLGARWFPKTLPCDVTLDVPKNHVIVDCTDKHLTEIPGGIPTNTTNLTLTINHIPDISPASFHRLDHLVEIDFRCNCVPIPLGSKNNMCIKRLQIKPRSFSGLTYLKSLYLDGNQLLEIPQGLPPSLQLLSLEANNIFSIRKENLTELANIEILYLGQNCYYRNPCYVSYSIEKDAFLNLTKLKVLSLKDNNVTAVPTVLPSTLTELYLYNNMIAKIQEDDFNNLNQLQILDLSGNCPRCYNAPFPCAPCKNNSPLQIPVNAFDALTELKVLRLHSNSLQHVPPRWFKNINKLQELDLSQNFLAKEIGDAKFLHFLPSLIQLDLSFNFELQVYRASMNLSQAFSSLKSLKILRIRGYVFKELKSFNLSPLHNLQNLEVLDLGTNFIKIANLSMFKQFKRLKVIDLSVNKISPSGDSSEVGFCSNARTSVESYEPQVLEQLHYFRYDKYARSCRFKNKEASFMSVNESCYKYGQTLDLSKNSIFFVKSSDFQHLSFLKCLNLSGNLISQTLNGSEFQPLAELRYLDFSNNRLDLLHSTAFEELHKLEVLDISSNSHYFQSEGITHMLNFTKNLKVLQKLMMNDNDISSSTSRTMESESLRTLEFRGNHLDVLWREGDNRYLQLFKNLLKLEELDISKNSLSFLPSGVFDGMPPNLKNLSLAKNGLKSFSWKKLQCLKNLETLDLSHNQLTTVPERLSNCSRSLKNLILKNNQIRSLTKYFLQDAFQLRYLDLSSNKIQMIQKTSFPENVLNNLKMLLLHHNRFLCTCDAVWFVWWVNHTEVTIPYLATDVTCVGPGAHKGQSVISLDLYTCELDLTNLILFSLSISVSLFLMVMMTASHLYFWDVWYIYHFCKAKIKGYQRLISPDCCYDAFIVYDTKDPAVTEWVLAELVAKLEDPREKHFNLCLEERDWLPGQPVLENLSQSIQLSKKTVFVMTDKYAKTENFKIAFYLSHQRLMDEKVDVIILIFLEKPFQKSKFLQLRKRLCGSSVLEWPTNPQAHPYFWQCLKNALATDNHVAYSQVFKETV

Toll-like receptor 8 = biological target: T2, Toll-like receptor 8 (Homo sapiens, UniProt Q9NR97); assay: Agonist activity at TLR8 (unknown origin) expressed in HEK-Blue cells; assay type: cell-based
T2 sequence (Q9NR97 whole entry): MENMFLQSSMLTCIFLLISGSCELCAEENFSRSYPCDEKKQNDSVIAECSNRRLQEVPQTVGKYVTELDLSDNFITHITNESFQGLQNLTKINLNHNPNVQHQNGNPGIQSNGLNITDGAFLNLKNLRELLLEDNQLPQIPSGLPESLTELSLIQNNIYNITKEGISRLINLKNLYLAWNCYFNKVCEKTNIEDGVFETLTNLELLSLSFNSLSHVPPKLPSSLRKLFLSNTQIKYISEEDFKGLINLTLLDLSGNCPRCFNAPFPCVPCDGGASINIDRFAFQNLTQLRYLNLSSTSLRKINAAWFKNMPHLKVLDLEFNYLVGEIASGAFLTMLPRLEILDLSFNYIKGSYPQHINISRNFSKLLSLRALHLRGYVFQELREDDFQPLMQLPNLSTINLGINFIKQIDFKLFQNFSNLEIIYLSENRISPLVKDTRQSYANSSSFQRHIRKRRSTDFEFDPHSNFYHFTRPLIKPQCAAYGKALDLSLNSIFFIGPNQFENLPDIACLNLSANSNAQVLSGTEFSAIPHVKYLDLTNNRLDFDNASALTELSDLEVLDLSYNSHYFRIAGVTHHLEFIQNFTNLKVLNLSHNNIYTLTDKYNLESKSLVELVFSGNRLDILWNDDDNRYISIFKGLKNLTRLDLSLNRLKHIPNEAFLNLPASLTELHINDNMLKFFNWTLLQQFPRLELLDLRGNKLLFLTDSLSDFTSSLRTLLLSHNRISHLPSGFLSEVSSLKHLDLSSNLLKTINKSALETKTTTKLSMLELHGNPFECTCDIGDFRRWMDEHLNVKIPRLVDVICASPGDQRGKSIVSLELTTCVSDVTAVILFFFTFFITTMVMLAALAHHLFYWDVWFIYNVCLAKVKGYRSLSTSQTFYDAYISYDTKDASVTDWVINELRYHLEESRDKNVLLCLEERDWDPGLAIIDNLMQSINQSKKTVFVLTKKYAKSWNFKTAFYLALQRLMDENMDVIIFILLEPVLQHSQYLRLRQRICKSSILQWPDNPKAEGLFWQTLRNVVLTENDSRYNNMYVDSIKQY

SMILES | EC50 (Toll-like receptor 7) | EC50 (Toll-like receptor 8)
CCC(=O)N(CC)Cc1nc2c(N)nc3cc(-c4ccn[nH]4)ccc3c2n1CC | > 100 µM | > 100 µM
CCN(Cc1nc2c(N)nc3cc(-c4ccccc4)ccc3c2[nH]1)C(C)=O | > 100 µM | > 100 µM
Cc1ccc(-c2ccc3c(c2)nc(N)c2nc(CN4CCCC4=O)[nH]c23)cc1 | > 100 µM | > 100 µM
CCN(Cc1nc2c(N)nc3cc(-c4cc[nH]n4)ccc3c2n1C)C(=O)OC(C)(C)C | > 100 µM | > 100 µM
Nc1nc2cc(-c3ccccc3F)ccc2c2[nH]c(CN3CCCC3=O)nc12 | > 100 µM | > 100 µM
CCN(C)Cc1nc2c(N)nc3cc(-c4cc[nH]n4)ccc3c2[nH]1 | > 100 µM | > 100 µM
CCN(Cc1nc2c(N)nc3cc(C4=CCCC4)ccc3c2[nH]1)C(C)=O | > 100 µM | > 100 µM
Nc1nc2cc(-n3cccn3)ccc2c2[nH]c(CN3C[C@H](c4ccccc4)CC3=O)nc12 | > 100 µM | > 100 µM

More lines, now with the values ahead:

EC50 (Toll-like receptor 7) | EC50 (Toll-like receptor 8) | SMILES
> 100 µM | > 100 µM | Nc1nc2cc(-c3cccs3)ccc2c2[nH]c(CN3CCCC3=O)nc12
> 100 µM | > 100 µM | CCn1c(CN2CCCC2=O)nc2c(N)nc3cc(-c4cccs4)ccc3c21
> 100 µM | > 100 µM | Cc1cccc(-c2ccc3c(c2)nc(N)c2nc(CN4CCCC4=O)[nH]c23)c1
> 100 µM | > 100 µM | Nc1nc2cc(-c3ccccc3)ccc2c2[nH]c(CN3CCCC3=O)nc12
